A short description of this series: Stability of dried 99mTcNCl4- preparation. The format is physicochemical. The protocol:
Samples of the ^99m TcNCl4^- preparation were taken to dryness in a rotary evaporator and stored for 24 hours (a) in air at room temperature, (b) at 80° C., and (c) at room temperature and 100% humidity. They were then used to prepare ^99m TcN-DTPA by addition of ligand as before.

Regarding `[N]#[99Tc-]([Cl])([Cl])([Cl])[Cl].[Na+]` [^99m TcNCl4^-, sodium tetrachloronitridotechnetate], the “chromatographic behaviour (HPLC) after storage of the dry reagent” value (24 hours in air at room temperature, at 80° C., or at room temperature and 100% humidity, tested as 99mTcN-DTPA) is “No significant difference in chromatographic behaviour”. Moreover, the “stability of the dry preparation for distribution” value (dry preparation) is “sufficiently stable to be prepared in a central laboratory or manufacturing site and distributed to users”. The “storage time for which the dry reagent was stable ("stable for up to")” value (dry, air at room temperature, 80° C., or room temperature and 100% humidity) was at least 24 h.

The record behind these values is patent US4923969A, “Preparation of 99m Tc radiopharmaceuticals” (The Commonwealth of Australia, priority 1983, dated 1990).
